The source of these data is patent publication US10434074B2, “Peptide and small molecule agonists of EPHA and uses thereof” (CASE WESTERN RESERVE UNIVERSITY, priority 2004, dated 2019).

The target in experiment [1] is T1, EphA2 (Homo sapiens, UniProt P29317). As to the kind of experiment: EphA2 tyrosine phosphorylation (activation) in PC3 cells, immunoprecipitation and anti-phosphotyrosine blot. Format: cell-based. The arrangement: We have previously identified EphA2 as the primary EphA kinase expressed in PC-3 cells; endogenous in cells; host or cells: PC-3 (PC3) and DU-145 cells. Conditions: for EphA2 activation (agonist function): PC-3 cells, PY99 blot; for EphA2 tyrosine phosphorylation: several different cell lines. The method, then: FIG. 9 illustrates EP1 is an EphA2 Kinase Agonist. PC3 cells (1×10^6 cells/ml) were stimulated with different concentrations of EP1-Fc, GST-EP1, or ephrin-A1-Fc for 10 min. EphA2 was precipitated with anti-EphA2. The immune complex was blotted for PY to detect EphA2 activation (top panel), or for EphA2 to show equal loading (lower panel). Data represents one of three similar experimental results.
T1 sequence (P29317 24-976): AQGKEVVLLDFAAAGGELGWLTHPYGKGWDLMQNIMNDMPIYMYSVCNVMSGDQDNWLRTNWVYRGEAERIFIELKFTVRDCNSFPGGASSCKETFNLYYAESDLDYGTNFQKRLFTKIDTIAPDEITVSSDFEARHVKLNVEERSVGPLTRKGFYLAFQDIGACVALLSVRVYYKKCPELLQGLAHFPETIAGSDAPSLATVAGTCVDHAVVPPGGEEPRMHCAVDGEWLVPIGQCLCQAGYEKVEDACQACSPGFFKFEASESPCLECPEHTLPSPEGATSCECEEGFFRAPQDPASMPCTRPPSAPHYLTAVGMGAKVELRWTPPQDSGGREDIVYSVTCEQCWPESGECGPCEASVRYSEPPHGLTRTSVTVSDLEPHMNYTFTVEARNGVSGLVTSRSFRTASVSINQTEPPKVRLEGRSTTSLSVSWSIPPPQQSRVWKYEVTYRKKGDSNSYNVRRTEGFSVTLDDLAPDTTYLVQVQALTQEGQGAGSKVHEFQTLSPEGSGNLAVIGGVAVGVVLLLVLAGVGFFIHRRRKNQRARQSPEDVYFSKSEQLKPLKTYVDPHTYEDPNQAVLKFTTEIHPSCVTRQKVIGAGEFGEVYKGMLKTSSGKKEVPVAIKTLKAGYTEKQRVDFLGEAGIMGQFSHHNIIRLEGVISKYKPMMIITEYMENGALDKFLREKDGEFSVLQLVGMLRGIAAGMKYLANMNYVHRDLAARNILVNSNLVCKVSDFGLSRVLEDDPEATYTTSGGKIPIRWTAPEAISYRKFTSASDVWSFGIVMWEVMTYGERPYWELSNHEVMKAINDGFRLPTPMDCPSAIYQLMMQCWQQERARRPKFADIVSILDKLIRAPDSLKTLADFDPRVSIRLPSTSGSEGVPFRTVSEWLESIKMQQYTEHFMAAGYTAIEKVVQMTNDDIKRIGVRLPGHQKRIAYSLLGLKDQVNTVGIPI
FIG. 15 illustrates Identification of EP1 residues critical for EphA2 activation. Four out of five EP1 residues that align with receptor-binding regions of ephrins are critical for EphA2 activation. Mutation to alanine was performed at the indicated positions (see letters in FIG. 15 for reference), and the resultant EP1-Fc mutants were used to stimulate PC3 cells for 10 min at […] for ability to activate EphA2.
PC-3 cells were stimulated with the indicated concentration of dobutamine. EphA2 was immunoprecipitated and tested for activation status by blotting with anti-phosphotyrosine (PY99).
Cells cultured in 6 well plates at 70-80% confluence were stimulated with 0.5 μg/ml Fc, 1 μg/ml epnrinA1-Fc or 20 ng/ml HGF/SF or their combinations as indicated. After stimulation, cells were lysed in RIPA buffer (20 mM Tris, pH7.4, 125 mM NaCl, 20 mM NaF, 0.1% SDS, 10% glycerol, 0.5% sodium deoxycholate, and 1% TX-100, 0.5 mM Na3VO4) containing protease inhibitors (1 mM phenylmethylsulphonyl fluoride, and 2 μg/ml each of aprotinin and leupeptin). Cell lysates were clarified by centrifugation at 13,000 rpm for 5 min. Immunoprecipitation was carried out by adding anti-EphA2 antibody to clarified cell lysates and incubated for 1 hour at 4° C. The immunocomplex was captured using γ-bind beads (Pharmacia). Cell lysates or precipitated proteins were separated on 4-20% Tris-glycine gels (Invitrogen) and transferred to Immobilon-P PVDF membranes (Millipore). […] For quantitative analysis, band densities were measured using KODAK 1D imagine analysis software (Eastman Kodak Company).

The subject of another experiment is PC3 or pRNS-1 cells. As to the kind of experiment: 3H-thymidine incorporation. Format: cell-based. Conditions: overnight stimulation. The procedure: Subconfluent PC3 or pRNS-1 cells were stimulated with the indicated reagents overnight. Next day cells were labeled with ^3H-thymidine for 2 hours. ^3H-thymidine incorporation into isolated DNA synthesis was determined by scintillation counting.

The subject of experiment [2] is pRNS-1 prostate epithelial cells. The experiment can be described thus: Clonal growth, crystal violet staining. Format: cell-based. The conditions noted are these: 10 days. The procedure:
About 80 pRNS-1 prostate epithelial cells were seeded into each well on 12-well dishes in the presence of indicated concentrations of ephrin-A1-Fc. Cells were cultured for 10 days. Clonal growth was visualized by crystal violet staining.

For another experiment, the system named is PC3 cells. As to the kind of experiment: Cell rounding. Format: cell-based, human. The conditions noted are these: 10 min. The method, then:
PC3 cells cultured on coverslips were stimulated with the indicated concentrations of ephrinA1-Fc, EP1-Fc of Fc for 10 min. Cells were then fixed and photographed.

Another experiment deals with GFP-PC-3 cells. The experiment can be described thus: PC3 xenograft growth in nude mice. Format: in vivo. The arrangement: s.c. tumor growth: dose or concentration left out as unconfirmed. Conditions: for s.c. tumor growth: vs human IgG. The source says: Frozen sections were stained with biotinylated rabbit anti-human Fc, and HRP-conjugated streptoavidin.
Experiment [3] concerns the target T1, EphA2. The experiment can be described thus: Precipitation of 125I-labeled PC3 cell proteins / Western blot (binding specificity). Set-up: We have previously identified EphA2 as the primary EphA kinase expressed in PC-3 cells; endogenous in cells; host or cells: PC-3 (PC3). The conditions noted are these: PC3 cell lysates. The procedure:
FIGS. 8(A-B) illustrate Specific Binding of EP1-Fc to EphA2 Receptor. A: ^125I labeling of PC3 cells. PC3 cells (10×10^6) were labeled with 125I (0.5 mCi). Then, cell lysates were incubated with EP1-Fc fusion peptide, ephrin-A1-Fc (EA1-Fc), or human Fc as indicated. Equal amount of cell lysate was used in each experimental group. […] B: Western Blotting Analysis. PC3 cell lysates were incubated with EP1-Fc fusion protein, ephrin-A1 protein, or human Fc. The immune complexes were blotted with anti-EphA2. EP1 specifically precipitated EphA2.
On the technique in general: A western blot detects proteins with antibodies after separation by electrophoresis.

Experiment [4] has as its system EphA2. The conditions noted are these: several breast cancer cell lines; cited from earlier work.
Experiment [5] addresses EphA2 kinase ligand-binding domain (Homo sapiens, UniProt P29317). As to the kind of experiment: BIAcore binding to immobilized EphA2 ligand-binding domain. The conditions noted are these: EphA2 LBD immobilized on sensor chip. The method, then:
A) EphA2 activation by labetalol. […] The increasing concentrations of labetalol (0, […], 1.25 mM and 2.5 mM) were injected over EphA2 kinase ligand-binding domain immobilized on the sensor chip.
A) Doxazosin activates EphA2.
(SPR reads the build-up and loss of mass on a sensor chip optically.)

The test system of a further experiment is ERK1/2. The experiment can be described thus: Inhibition of ERK1/2 (MAPK) in PC3 cells, anti-p-ERK1/2 blot. Format: cell-based, human. From the text:
FIG. 11 illustrates Activation of EphA2 downstream signaling by EP1-Fc. PC3 cells were stimulated with the indicated concentrations of ephrinA1-Fc or EP1-Fc fusion proteins and lysed in RIPA buffer. EphA2 activation status was examined by immunoprecipiting EphA2 and blotting for phosphotyrosine or EphA2 itself (top panel). Inhibition of ERK1/2, a downstream signaling event of EphA2 characterized in our lab, was examined by blotting total cell lysates with anti-p-ERK1/2.

The test system of experiment [6] is integrin-mediated cell adhesion. As to the kind of experiment: Integrin-mediated cell adhesion to fibronectin. Type of experiment: cell-based.

“Also recorded” adds a separate entry of the source. Where no end group is shown, it is not given here.

Chain of EphA2 kinase ligand-binding domain (P29317 28-206 limits assumed): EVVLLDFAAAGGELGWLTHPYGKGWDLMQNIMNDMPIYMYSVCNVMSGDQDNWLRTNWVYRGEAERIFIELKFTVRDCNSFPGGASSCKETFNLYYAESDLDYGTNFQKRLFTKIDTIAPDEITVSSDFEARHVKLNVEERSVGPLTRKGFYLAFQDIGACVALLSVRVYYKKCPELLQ

For “(di-meo-isoquinolin-1-ylmethyl)-et-di-meo-pyrido(2,1-a)isoquinolin, hydrobromide S120103”, the “EphA2 activation (agonist function)” value on EphA2 [1] is “EphA2 agonistic compound”.

For the compound `CC(CCc1ccc(O)cc1)NCCc1ccc(O)c(O)c1` (stereo not shown) [Dobutamine], the “EphA2 activation (agonist function)” value at EphA2 [1] is “EphA2 agonists”.

As for “EP1-Fc: recombinant EP1 fused to Fc, dimeric (RRCVWSTNVYSMEPALFCAA; not fully specified; cysteine pairing not given here; also: fused to Fc, dimeric)”, in the experiment on PC3 or pRNS-1 cells, the “cell proliferation / growth” value was “Inhibition of cell proliferation”. The clonal cell growth result in experiment [2] is on record as “Inhibition of cell growth”. The “cell morphology (rounding)” value in the experiment with PC3 cells was “adapt a round morphology; also recorded: induced PC3 cell rounding”. Besides, in the experiment with EphA2 [1], the EphA2 tyrosine phosphorylation entry is given as “induces dose-dependent EphA2 tyrosine phosphorylation”. Besides, the targeting to tumors result in the experiment on GFP-PC-3 cells (frozen sections stained with anti-human Fc) is listed as “target to GFP-PC-3 tumors”. The “tumor growth after three weeks of treatment” value in the experiment with GFP-PC-3 cells (i.p.) is on record as “lack of effects after three weeks of treatment”. The s.c. tumor growth entry is on record as “moderate inhibitory effects on PC3 xenograft growth” with GFP-PC-3 cells (i.p.) and “could have suppressive effect on the growth of prostate cancer xenograft” with GFP-PC-3 cells (i.p., listed as Ep1-Fc). Further, the “specificity of binding among cell surface proteins” value with EphA2 [3] was “only bound to EphA2”.

As for `N#CC(=C(/N)Sc1ccccc1N)/C(C#N)=C(/N)Sc1ccccc1N` [U1026], the EphA2 expression result in the experiment on EphA2 [4] was “reduced EphA2 expression”.

For `CC(CCc1ccccc1)NCC(O)c1ccc(O)c(C(N)=O)c1` (stereo not shown) [Labetalol], the “EphA2 activation (agonist function)” value on EphA2 [1] is given as “EphA2 agonists”. The “BIAcore binding to EphA2” value in experiment [5] is recorded as “binding curves for interaction of labetalol with EphA2 kinase”.

Consider “EphA2-binding peptide from X2CX14CX2 phage display library, SEQ ID NO: 1, RRCVWSTNVYSMEPA LFCAA (RRCVWSTNVYSMEPALFCAA) [EP1]”, for which the “cell proliferation / growth” value in the experiment on PC3 or pRNS-1 cells is “inhibited cancer cell growth”. In addition, in the experiment with ERK1/2, the “mitogen-activated protein kinase (MAPK)” value is given as “inhibited mitogen-activated protein kinase”. Further, the EphA2 tyrosine phosphorylation result with EphA2 [1] is given as “binds to EphA2 without activating it”. Besides, the “integrin function and cell adhesion” value in experiment [6] is “suppressed integrin function and causes reduced cell adhesion”. For the same compound, the “specificity of binding among cell surface proteins” value with EphA2 [3] was “EphA2 was the only cell surface protein that was targeted by EP1”.

Take `COc1cc2nc(N3CCN(C(=O)C4COc5ccccc5O4)CC3)nc(N)c2cc1OC` (stereo not shown) [Doxazosin]: the “EphA2 activation (agonist function)” value on EphA2 [1] is reported as “EphA2 agonists”. The “BIAcore binding to EphA2” value in experiment [5] was “direct binding”.

For “GST-EP1: recombinant EP1 fused to GST (RRCVWSTNVYSMEPALFCAA; cysteine pairing not given here; also: fused to GST)”, in the experiment with EphA2 [1], the EphA2 tyrosine phosphorylation entry is on record as “induces dose-dependent EphA2 tyrosine phosphorylation”.
